A short description of series [1]: in vitro. The following applies: African green monkey.
A short description of series [2]: in vitro. The settings on record: human.
In series [3] the test system is SARS-CoV-2. The experiment in a line: microbe, parasite or virus in culture. In kind it is cell-based. The settings on record: for IC50: Severe acute respiratory syndrome coronavirus 2, Huh-7, 48 h.
Series [4] concerns SARS-CoV-2. The series is classed as cell-based.
Series [5] deals with SARS-CoV-2. The series is classed as cell-based. The following applies: Vero E6 cells, CC50/IC50.
Series [6] concerns SARS-CoV-2. The experiment in a line: Time-of-drug-addition assay in Vero E6 cells. In kind it is cell-based.
Series [7] deals with SARS-CoV-2. In kind it is cell-based. This is another data set of the same source.
Series [8] is described as follows: In vivo plasma exposure in humans. The arrangement: species or system human.
For series [9] the following is noted: plasma; ref Cvetkovic and Goa (2003); cited from earlier work.
In a further series the test system is Huh7 cells. The settings on record: CCK-8 assay.
The subject of the next series is Vero E6 cells. The settings on record: read-out: CC50 (half cytotoxic concentration).

Read-outs that look alike come from different tables or passages of the source. Marks after values point to notes of the source that are not given here. Some results are limits rather than exact numbers.

For the compound `CCOC(=O)/C=C/[C@H](C[C@@H]1CCNC1=O)NC(=O)[C@@H](CC(=O)[C@@H](NC(=O)c1cc(C)on1)C(C)C)Cc1ccc(F)cc1` [Rupintrivir, rupintrivir], the CC50 in “in vitro [1]” and in the series “in vitro [2]” was > 100 µM in each case. The “selectivity index (SI)” value in the series on SARS-CoV-2 [3] (Huh7 cells, CC50/IC50) is on record as > 3.94; with SARS-CoV-2 [5], > 2.93. Moreover, 25.4 µM corresponded to half-maximal inhibition in the series with SARS-CoV-2 [3] (IC50). Further, the “NP expression by IFA” value in the series on SARS-CoV-2 [4] is “confirmed by IFA”. In addition, the “stage of infection at which the compound acts (time-of-drug-addition)” value (from here on “stage of infection”) in the series on SARS-CoV-2 [6] is “inhibit SARS-CoV-2 at the stages post virus infection”. Moreover, the “inhibitory effect by IFA” value in the series with SARS-CoV-2 [7] is “confirmed by IFA”.
In the series on SARS-CoV-2 [3], `CC(C)c1nc(CN(C)C(=O)N[C@H](C(=O)N[C@@H](Cc2ccccc2)C[C@H](O)[C@H](Cc2ccccc2)NC(=O)OCc2cncs2)C(C)C)cs1` [Ritonavir, ritonavir] showed an IC50 of 11.7 µM. Further, the “NP expression by IFA” value in the series on SARS-CoV-2 [4] is on record as “decreased NP expression levels”. Moreover, the “In vivo concentration Unbound Cmin” value in series [8] is given as 0.0006 µmol/L. For the same compound, the “stage of infection” value in the series with SARS-CoV-2 [6] was “inhibited SARS-CoV-2 infection after virus entry, but not during virus entry”. Also, in series [9], the “In vivo concentration Cmin” value is 0.038^e µmol/L. Also, the “inhibitory effect by IFA” value in the series with SARS-CoV-2 [7] is recorded as “IFA confirmed the inhibitory effect”.
In the case of `Cc1cccc(C)c1OCC(=O)N[C@@H](Cc1ccccc1)[C@@H](O)C[C@H](Cc1ccccc1)NC(=O)[C@H](C(C)C)N1CCCNC1=O` [Lopinavir, lopinavir], the CC50 with Huh7 cells is 64.4 µM; in “in vitro [1]”, 80.8 µM. In the series with SARS-CoV-2 [3], this compound had an IC50 of 7.79 µM. The “NP expression by IFA” value in the series with SARS-CoV-2 [4] is “decreased NP expression levels”. Moreover, the “stage of infection” value in the series on SARS-CoV-2 [6] is “inhibited SARS-CoV-2 infection after virus entry, but not during virus entry”. In the series on SARS-CoV-2 [7], the “inhibitory effect by IFA” value is “IFA confirmed the inhibitory effect”.
For `C#CC[C@@H](C(=O)N[C@H](/C=C/C(=O)OCC)C[C@@H]1CCNC1=O)n1cccc(NC(=O)c2cc(C)on2)c1=O` [AG7404], the CC50 in the series on Huh7 cells and with Vero E6 cells was > 400 µM in each case. The compound also came in with an IC50 with SARS-CoV-2 [3] of 92.5 µM. For the same compound, the “NP expression by IFA” value with SARS-CoV-2 [4] is “confirmed by IFA”. In addition, the “stage of infection” value in the series with SARS-CoV-2 [6] is recorded as “inhibit SARS-CoV-2 at the stages post virus infection”. Further, in the series with SARS-CoV-2 [7], the “inhibitory effect by IFA” value was “confirmed by IFA”.

A word on the IC50: it is the concentration that inhibits the measured activity by half.

(Values after PMC7481761 (Virologica Sinica, 2020).)
